# Source: EP1507508B1, “COMPOSITION CONTAINING A PEPTIDE AND A PIGMENT AND THE USE THEREOF IN DARKENING THE SKIN” (JOHNSON & JOHNSON CONSUMER COMPANIES, INC., priority 2002, dated 2003)
# Test system: Dark skinned Yucatan microswine
# Assay: Induced pigmentation in vivo, topical treatment, Fontana-Mason stained skin sections scored for pigment deposition
# Conditions: average of all sites of responsive swine; topical twice a day, five days/week, eight or nine weeks; positive controls 1% (W/V), pigments 1% or 5% (W/V), peptides 250 µM or 500µM, combinations with pigments at 1%(W/V)
# Experimental: Compositions were tested for their ability to induce in vivo pigmentation in skin cells in the following experiment. Dark skinned Yucatan microswine (Charles River, Portland, ME) were housed in appropriately sized cages in an environmentally controlled room with a 12-hour light - 12-hour dark photoperiod and supplied with food and water ad libitum. Animal care was based on the "Guide for the Care and Use of Laboratory Animals", NIH Publication No. 85-23. Twenty µl of test peptides were applied topically, twice a day, five days/week, for eight or nine weeks, on the dorsum of the swine. Treatments of individual swine were always arranged in a head to tail order on one side, and in a tail to head order on the other side of the animal. Biopsies were taken using standard techniques.
# F&M staining identifies silver nitrate reducing molecules. In skin, this non-specific stain identifies primarily melanin. At least three sections per biopsy were processed. Each experiment was repeated at least three times.
# Swine were treated with either: the known skin darkening agent forskolin (Sigma) or with a Coleus forskoli extract (ATZ Naturals, Englewood Cliffs, NJ) which contains forskolin, as a positive control at 1% (W/V); pigments at 1% or 5% (W/V); peptides at 250 µM or 500µM; and combinations of such peptides at 250 µM or 500µM with pigments at 1%(W/V). […]
row,Compound,Score
1,C=C[C@@]1(C)CC(=O)[C@]2(O)[C@@]3(C)[C@@H](O)CCC(C)(C)[C@@H]3[C@H](O)[C@H](OC(C)=O)[C@@]2(C)O1 [Forskolin],1
2,H2-Val-Gly-Val-Ala-Pro-Gly-NH2 (H-VGVAPG-NH2) [Peptide 1],1
